The values below come from publication PMC5598150 (Toxicology Reports, 2015).

Series [1] relates to human neuroblastoma SK-N-SH cells. As to the kind of experiment: MTT assay of cell viability in SK-N-SH neuroblastoma cells. Format: cell-based. On the technique in general: Formazan colour is commonly taken as a measure of viable cells.
Series [2] has as its system rat. The conditions noted are these: ref Hazardous Substances Data Bank (HSDB); cited from earlier work.
Series [3] relates to primary cultured cells. As to conditions: cited from earlier work.
Series [4] concerns primary rat cortical neurons. As to the kind of experiment: Live and Dead cell staining of primary neuronal cultures. Format: cell-based. The conditions noted are these: 24 h.
The conditions of series [5]: partition coefficient between octanol and water; cited from earlier work.

For `Cc1ccccc1` [Toluene, reference compound], the IC50 (commonly the point on the concentration scale where inhibition reaches its midpoint) in series [1] (Homo sapiens, SK-N-SH, 24 h) was determined as 850 µM. Also, in series [2], the “LD50 rat (intraperitoneal)” value is on record as 1332 mg/kg. The “Concentration causing the death of all primary cultured cells” value in series [3] is 2000 µM.

On to `C=CC(C)(O)CCC=C(C)C` (centres unmarked) [Linalool], for which the “Survival of primary cultured neurons” value in series [4] (1 mM) is given as “almost all of the cells in culture dishes died”. The compound further showed an IC50 in series [1] (Homo sapiens, SK-N-SH, 24 h) of 1330 µM. In series [2], the “LD50 rat (intraperitoneal)” value is on record as 307 mg/kg.

With `CCCCC(CC)CO` (centres unmarked) [2-Ethyl-1-hexanol], the “Survival of primary cultured neurons” value in series [4] (0.5 mM) is “almost all of the primary cultured neurons died”. The IC50 in series [1] (Homo sapiens, SK-N-SH, 24 h) came out at 15.1 µM. The “LD50 rat (intraperitoneal)” value in series [2] is listed as 500 mg/kg. Moreover, the “log Pow” value in series [5] is listed as 2.73.

Consider `OCCc1ccccc1` [Phenethyl alcohol], for which the “Survival of primary cultured neurons” value in series [4] (1 mM) was “almost all of the cells in culture dishes survived”. For the same compound, the IC50 in series [1] (Homo sapiens, SK-N-SH, 24 h) amounted to 2390 µM.

As to `CCCCCCCCC=O` [Nonanal], in series [4] (0.5 mM), the “Survival of primary cultured neurons” value is “almost all of the primary cultured neurons died”. For the same compound, the IC50 in series [1] (Homo sapiens, SK-N-SH, 24 h) is 8.31 µM. Further, in series [5], the “log Pow” value was 3.27.

As for `CC/C=C\CCO` [cis-3-Hexen-1-ol], in series [4] (1 mM), the “Survival of primary cultured neurons” value was “almost all of the cells in culture dishes died”. Besides, in series [1] (Homo sapiens, SK-N-SH, 24 h), the midpoint of inhibition, the IC50, lay at 2300 µM.

For `CCCO` [n-Propyl alcohol], the “Survival of primary cultured neurons” value in series [4] (1 mM) is on record as “almost all of the cells in culture dishes survived”. In addition, in series [1] (SK-N-SH cells, MTT assay, 24 h exposure), the IC50 is more than 5000 µM. For the same compound, the “LD50 rat (intraperitoneal)” value in series [2] is 164 mg/kg.

In the case of `CCCCCCCC=O` [n-Octanal], the “Survival of primary cultured neurons” value in series [4] (0.5 mM) is “almost all of the primary cultured neurons died”. In addition, the IC50 in series [1] (Homo sapiens, SK-N-SH, 24 h) came to 37.2 µM. The “log Pow” value in series [5] is 2.78.
